Reference: patent US11215608B2, “Methods of determining cellular chemosensitivity” (Dana-Farber Cancer Institute, Inc., priority 2006, dated 2022)

How the values were obtained:
BAX = BAX oligomerization / activation in mitochondria of IL-3 starved FL5.12-BCL-2 cells; type: biochemical, murine
Protocol: Mitochondria were isolated from wt FL5.12 cells and FL5.12-BCL-2 cells in the presence of IL-3, and from FL5.12-BCL-2 cells following 24 hours of IL-3 deprivation. […] Mitochondrial pellets were subjected to chemical crosslinking as previously described (Letai et al., 2002).
This model predicts that BCL-2 acts upstream of BAX activation by intercepting activator BH3 molecules. To test this prediction, in FIG. 6E, immunoprecipitation was performed with an antibody that recognizes only the activated form of BAX which exposes an N-terminus epitope (Desagher ct al., 1999; Hsu and You le, 1997). wt or BCL-2 expressing FL5.12 cells were exposed to IL-3 withdrawal as indicated.

BCL-2:BIM complex = biological target: T1, BCL-2:BIM complex (Homo sapiens, UniProt P10415); assay: Displacement of BIM from immunoprecipitated BCL-2, detergent-free; type: binding; conditions: 1 μM, detergent-free conditions
T1 construct: A BCL-2 antibody was used to immunoprecipitate BCL-2 from CLL lysates from four independent patient samples; endogenous in cells; host or cells: freshly isolated primary human CLL cells
T1 sequence (P10415 whole entry, one chain of several): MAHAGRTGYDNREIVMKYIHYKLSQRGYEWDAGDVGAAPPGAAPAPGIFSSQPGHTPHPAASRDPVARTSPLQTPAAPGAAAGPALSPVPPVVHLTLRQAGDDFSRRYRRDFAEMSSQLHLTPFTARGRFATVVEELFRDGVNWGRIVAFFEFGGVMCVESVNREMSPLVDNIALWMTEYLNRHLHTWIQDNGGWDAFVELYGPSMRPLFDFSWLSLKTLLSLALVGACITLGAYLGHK

CLL cells = assay: Annexin-V death assay of freshly isolated primary CLL cells; type: cell-based, human; conditions: five samples
BCL-w = biological target: T2, BCL-w (Homo sapiens, UniProt Q92843); conditions: cited from earlier work
T2 sequence (Q92843 1-193): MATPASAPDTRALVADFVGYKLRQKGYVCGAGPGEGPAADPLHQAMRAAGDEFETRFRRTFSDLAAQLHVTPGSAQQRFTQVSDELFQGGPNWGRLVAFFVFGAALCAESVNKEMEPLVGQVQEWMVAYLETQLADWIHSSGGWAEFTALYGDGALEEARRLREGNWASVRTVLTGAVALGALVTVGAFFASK

With `CN(C)CC[C@H](CSc1ccccc1)Nc1ccc(S(=O)(=O)NC(=O)c2ccc(N3CCN(Cc4ccccc4-c4ccc(Cl)cc4)CC3)cc2)cc1[N+](=O)[O-]` [ABT-737] the “cytochrome c release and BAX activation” value (BAX; mitochondria from IL-3 starved cells) was “restored cytochrome c release and BAX activation”, the BAX oligomerization (BAX; peptides 30 uM, ABT-737 10 uM, 35 minutes) was “results in BAX oligomerization” and the “displacement of BIM from BCL-2 into the supernatant” value (BCL-2:BIM complex) was “displaces BIM from BCL-2 into the supernatant”. The “response of CLL cells after four hours” value (CLL cells) was “responded similarly compared to 48-hour treatment” and the “affinity to BCL-w” value (BCL-w) was “sub-nanomolar range”.
